{"source": "patent JP2006306850A", "about": "“置換ベンズアニリド化合物及び有害生物防除剤” (priority 2005, dated 2006)", "assay_type_in_all_cases": "in vivo", "conditions_in_all_cases": "144 h, read-out: mortality rate", "key": {"[1]": {"test_system": "oriental tea tortrix [チャハマキ(Homona magnanima)]", "test": "試験例3 チャハマキに対する殺虫試験 (insecticidal test, 2nd instar larvae)"}, "[2]": {"test_system": "diamondback moth [コナガ(Plutella xylostella)]", "test": "試験例1 コナガに対する殺虫試験 (insecticidal test, 2nd instar larvae)"}, "[3]": {"test_system": "common cutworm [ハスモンヨトウ(Spodoptera litura)]", "test": "試験例2 ハスモンヨトウに対する殺虫試験 (insecticidal test, 2nd instar larvae)"}, "[4]": {"test_system": "cucurbit leaf beetle [ウリハムシ(Aulacophora femoralis)]", "test": "試験例4 ウリハムシに対する殺虫試験 (insecticidal test, 2nd instar larvae)"}, "[5]": {"conditions": "100 ppm, leaf dip, 2nd instar, 6 days, 25℃"}}, "note": "Read-outs that look alike come from different tables or passages of the source.", "data": [{"smiles": "COC(c1ccc(Cl)cc1)(c1ccc(NC(=O)c2cccc(I)c2C(=O)NC(C)C)c(C)c1)C(F)(F)F", "note": "(centres unmarked) [3-002]", "values": [{"measurement": "mortality at 100 ppm", "setting": "[1]", "value": "≥ 80", "unit": "%"}, {"measurement": "mortality at 100 ppm", "setting": "[2]", "value": 100, "unit": "%"}, {"measurement": "mortality at 100 ppm", "setting": "[3]", "value": "≥ 80", "unit": "%"}]}, {"smiles": "Cc1cc(C(O)(COc2ccc(Cl)cc2)C(F)(F)F)ccc1NC(=O)c1cccc(I)c1C(=O)NC(C)C", "note": "(centres unmarked) [2-004]", "values": [{"measurement": "mortality at 100 ppm", "setting": "[2]", "value": 100, "unit": "%"}, {"measurement": "mortality at 100 ppm", "setting": "[3]", "value": "≥ 80", "unit": "%"}, {"measurement": "mortality at 500 ppm", "setting": "[4]", "value": 100, "unit": "%"}]}, {"smiles": "Cc1cc(C(O)(c2ccc(OC(F)(F)F)cc2)C(F)(F)F)ccc1NC(=O)c1cccc(I)c1C(=O)NC(C)C", "note": "(centres unmarked) [1-009]", "values": [{"measurement": "mortality at 100 ppm", "setting": "[1]", "value": "≥ 80", "unit": "%"}, {"measurement": "mortality at 100 ppm", "setting": "[2]", "value": 100, "unit": "%"}, {"measurement": "mortality at 100 ppm", "setting": "[3]", "value": "≥ 80", "unit": "%"}, {"measurement": "mortality at 500 ppm", "setting": "[4]", "value": 100, "unit": "%"}]}, {"smiles": "Cc1cc(C(O)(c2ccc(OS(C)(=O)=O)cc2)C(F)(F)F)ccc1NC(=O)c1cccc(I)c1C(=O)NC(C)C", "note": "(centres unmarked) [1-015]", "values": [{"measurement": "mortality at 100 ppm", "setting": "[2]", "value": 100, "unit": "%"}, {"measurement": "mortality at 100 ppm", "setting": "[3]", "value": "≥ 80", "unit": "%"}]}, {"smiles": "Cc1cc2c(cc1NC(=O)c1cccc(I)c1C(=O)NC(C)C)OC(F)(F)C2(O)C(F)(F)F", "note": "(centres unmarked) [4-002]", "values": [{"measurement": "mortality at 100 ppm", "setting": "[1]", "value": "≥ 80", "unit": "%"}, {"measurement": "mortality at 100 ppm", "setting": "[2]", "value": 100, "unit": "%"}, {"measurement": "mortality at 100 ppm", "setting": "[3]", "value": "≥ 80", "unit": "%"}, {"measurement": "mortality at 500 ppm", "setting": "[4]", "value": 100, "unit": "%"}]}, {"smiles": "Cc1cc(C(O)(c2ccc(OC(F)(F)Br)cc2)C(F)(F)F)ccc1NC(=O)c1cccc(I)c1C(=O)NC(C)C", "note": "(centres unmarked) [1-010]", "values": [{"measurement": "mortality at 100 ppm", "setting": "[1]; [5]", "value": "≥ 80", "unit": "%"}, {"measurement": "mortality at 100 ppm", "setting": "[2]; [5]", "value": 100, "unit": "%"}, {"measurement": "mortality at 100 ppm", "setting": "[3]; [5]", "value": "≥ 80", "unit": "%"}, {"measurement": "mortality at 500 ppm", "setting": "[4]; 500 ppm, leaf dip, 2nd instar, 6 days, 25℃", "value": 100, "unit": "%"}]}, {"smiles": "Cc1cc(C(O)(C(F)(F)F)C(F)(F)Oc2ccc(Cl)cc2)ccc1NC(=O)c1cccc(I)c1C(=O)NC(C)C", "note": "(centres unmarked) [2-008]", "values": [{"measurement": "mortality at 100 ppm", "setting": "[1]", "value": "≥ 80", "unit": "%"}, {"measurement": "mortality at 100 ppm", "setting": "[2]", "value": 100, "unit": "%"}, {"measurement": "mortality at 100 ppm", "setting": "[3]", "value": "≥ 80", "unit": "%"}, {"measurement": "mortality at 500 ppm", "setting": "[4]", "value": 100, "unit": "%"}]}, {"smiles": "Cc1cc(C(O)(C=Cc2ccc(Cl)cc2)C(F)(F)F)ccc1NC(=O)c1cccc(I)c1C(=O)NC(C)C", "note": "(centres unmarked) [2-018]", "values": [{"measurement": "mortality at 100 ppm", "setting": "[1]", "value": "≥ 80", "unit": "%"}, {"measurement": "mortality at 100 ppm", "setting": "[2]", "value": 100, "unit": "%"}, {"measurement": "mortality at 100 ppm", "setting": "[3]", "value": "≥ 80", "unit": "%"}, {"measurement": "mortality at 500 ppm", "setting": "[4]", "value": 100, "unit": "%"}]}, {"smiles": "Cc1cc(C(O)(c2ccc3c(c2)OC(F)(F)C(F)(F)O3)C(F)(F)F)ccc1NC(=O)c1cccc(I)c1C(=O)NC(C)C", "note": "(centres unmarked) [1-028]", "values": [{"measurement": "mortality at 100 ppm", "setting": "[1]", "value": "≥ 80", "unit": "%"}, {"measurement": "mortality at 100 ppm", "setting": "[2]", "value": 100, "unit": "%"}, {"measurement": "mortality at 100 ppm", "setting": "[3]", "value": "≥ 80", "unit": "%"}, {"measurement": "mortality at 500 ppm", "setting": "[4]", "value": 100, "unit": "%"}]}, {"smiles": "Cc1cc(C(C)(O)c2ccc(C(F)(F)F)cn2)ccc1NC(=O)c1cccc(I)c1C(=O)NC(C)C", "note": "(centres unmarked) [2-001]", "values": [{"measurement": "mortality at 100 ppm", "setting": "[2]", "value": 100, "unit": "%"}, {"measurement": "mortality at 100 ppm", "setting": "[3]", "value": "≥ 80", "unit": "%"}, {"measurement": "mortality at 500 ppm", "setting": "[4]", "value": 100, "unit": "%"}]}]}
